Assay results from ChEMBL document CHEMBL3885881, “DrugMatrix”.

Organism: Rattus norvegicus
Assay: DrugMatrix - Regimen: Daily Repeat
Format: toxicity, organism-based, Sprague-Dawley
Design: regimen Daily Repeat, gender Male, age 6-8 weeks
Conditions: in vivo, po, route oral GAVAGE, […]; for ABSOLUTE BASOPHIL / ABSOLUTE EOSINOPHIL / ABSOLUTE LYMPHOCYTE / ABSOLUTE SEGMENTED NEUTROPHIL / BASOPHIL / EOSINOPHIL / ERYTHROCYTE COUNT / HEMATOCRIT / HEMOGLOBIN / LEUKOCYTE COUNT / LYMPHOCYTE / MEAN CORPUSCULAR HEMOGLOBIN / MEAN CORPUSCULAR HEMOGLOBIN CONCENTRATION / MEAN CORPUSCULAR VOLUME / MONOCYTE / NEUTROPHIL / NUCLEATED RED BLOOD CELLS / PLATELET COUNT: tissue Blood; for ALANINE AMINOTRANSFERASE / ALBUMIN / ALKALINE PHOSPHATASE / ASPARTATE AMINOTRANSFERASE / BLOOD UREA NITROGEN / CARBON DIOXIDE / CHLORIDE / CHOLESTEROL / CREATINE PHOSPHOKINASE / CREATININE / GLUCOSE / LACTATE DEHYDROGENASE / LIPASE / PHOSPHORUS / POTASSIUM / SODIUM / TOTAL BILIRUBIN / TOTAL PROTEIN / URIC ACID: tissue Plasma
[1] = 0 mg/kg, 72 h, dose level Control, time 3 day
[2] = 0 mg/kg, 120 h, dose level Control, time 5 day
[3] = 15 mg/kg, 72 h, dose level Low, time 3 day

CCC(C)(C)C(=O)O[C@H]1C[C@@H](C)C=C2C=C[C@H](C)[C@H](CC[C@@H]3C[C@@H](O)CC(=O)O3)[C@H]21 [SIMVASTATIN]
ABSOLUTE BASOPHIL [1]: 0 CELLS/uL | ABSOLUTE EOSINOPHIL [1]: 14 CELLS/uL | ABSOLUTE LYMPHOCYTE [1]: 11144.67 CELLS/uL | ABSOLUTE SEGMENTED NEUTROPHIL [1]: 535.5 CELLS/uL | BASOPHIL [1]: 0% | EOSINOPHIL [1]: 0.17% | ERYTHROCYTE COUNT [1]: 5.08 x10E6/uL | HEMATOCRIT [1]: 32.32% | HEMOGLOBIN [1]: 12.87 G/DL | LEUKOCYTE COUNT [1]: 11.72 x10E3/uL | LYMPHOCYTE [1]: 94.67% | MEAN CORPUSCULAR HEMOGLOBIN [1]: 25.37 pg | MEAN CORPUSCULAR HEMOGLOBIN CONCENTRATION [1]: 39.85 G/DL | MEAN CORPUSCULAR VOLUME [1]: 63.58 fL | MONOCYTE [1]: 0.17% | NEUTROPHIL [1]: 5% | NUCLEATED RED BLOOD CELLS [1]: 0 /100WBC | PLATELET COUNT [1]: 1084 x10E3/uL | ALANINE AMINOTRANSFERASE [1]: 67.5 u/L | ALBUMIN [1]: 4.02 G/DL | ALKALINE PHOSPHATASE [1]: 374.17 u/L | ASPARTATE AMINOTRANSFERASE [1]: 83.5 u/L | BLOOD UREA NITROGEN [1]: 14.5 mg/dL | CARBON DIOXIDE [1]: 30 mmol/L | CHLORIDE [1]: 100.5 MEQ/L | CHOLESTEROL [1]: 71.33 mg/dL | CREATINE PHOSPHOKINASE [1]: 268.33 u/L | CREATININE [1]: 0.16 mg/dL | GLUCOSE [1]: 170.5 mg/dL | LACTATE DEHYDROGENASE [1]: 81.17 u/L | LIPASE [1]: 16.67 u/L | PHOSPHORUS [1]: 10.07 mg/dL | POTASSIUM [1]: 5.03 MEQ/L | SODIUM [1]: 142.92 MEQ/L | TOTAL BILIRUBIN [1]: 0.17 mg/dL | TOTAL PROTEIN [1]: 5.63 G/DL | URIC ACID [1]: 0.5 mg/dL | ABSOLUTE BASOPHIL [2]: 0 CELLS/uL | ABSOLUTE EOSINOPHIL [2]: 37.5 CELLS/uL | ABSOLUTE LYMPHOCYTE [2]: 8049.5 CELLS/uL | ABSOLUTE SEGMENTED NEUTROPHIL [2]: 646.83 CELLS/uL | BASOPHIL [2]: 0% | EOSINOPHIL [2]: 0.5% | ERYTHROCYTE COUNT [2]: 5.36 x10E6/uL | HEMATOCRIT [2]: 33.9% | HEMOGLOBIN [2]: 13.02 G/DL | LEUKOCYTE COUNT [2]: 8.82 x10E3/uL | LYMPHOCYTE [2]: 90.17% | MEAN CORPUSCULAR HEMOGLOBIN [2]: 24.32 pg | MEAN CORPUSCULAR HEMOGLOBIN CONCENTRATION [2]: 38.42 G/DL | MEAN CORPUSCULAR VOLUME [2]: 63.32 fL | MONOCYTE [2]: 1.17% | NEUTROPHIL [2]: 8.17% | NUCLEATED RED BLOOD CELLS [2]: 0.17 /100WBC | PLATELET COUNT [2]: 1231.5 x10E3/uL | ALANINE AMINOTRANSFERASE [2]: 62 u/L | ALBUMIN [2]: 3.97 G/DL | ALKALINE PHOSPHATASE [2]: 303.67 u/L | ASPARTATE AMINOTRANSFERASE [2]: 84.5 u/L | BLOOD UREA NITROGEN [2]: 14.83 mg/dL | CARBON DIOXIDE [2]: 31.83 mmol/L | CHLORIDE [2]: 97 MEQ/L | CHOLESTEROL [2]: 68.83 mg/dL | CREATINE PHOSPHOKINASE [2]: 411.33 u/L | CREATININE [2]: 0.16 mg/dL | GLUCOSE [2]: 170.17 mg/dL | LACTATE DEHYDROGENASE [2]: 88.5 u/L | LIPASE [2]: 9.5 u/L | PHOSPHORUS [2]: 9.98 mg/dL | POTASSIUM [2]: 5.72 MEQ/L | SODIUM [2]: 141.62 MEQ/L | TOTAL BILIRUBIN [2]: 0.1 mg/dL | TOTAL PROTEIN [2]: 5.67 G/DL | URIC ACID [2]: 0.52 mg/dL | ABSOLUTE BASOPHIL [3]: 0 CELLS/uL | ABSOLUTE EOSINOPHIL [3]: 0 CELLS/uL | ABSOLUTE LYMPHOCYTE [3]: 9235.67 CELLS/uL | ABSOLUTE SEGMENTED NEUTROPHIL [3]: 962.33 CELLS/uL | BASOPHIL [3]: 0% | EOSINOPHIL [3]: 0% | ERYTHROCYTE COUNT [3]: 5.23 x10E6/uL | HEMATOCRIT [3]: 32.6% | HEMOGLOBIN [3]: 12.9 G/DL | LEUKOCYTE COUNT [3]: 10.33 x10E3/uL | LYMPHOCYTE [3]: 89.33% | MEAN CORPUSCULAR HEMOGLOBIN [3]: 24.7 pg | MEAN CORPUSCULAR HEMOGLOBIN CONCENTRATION [3]: 39.57 G/DL | MEAN CORPUSCULAR VOLUME [3]: 62.4 fL | MONOCYTE [3]: 1.33% | NEUTROPHIL [3]: 9.33% | NUCLEATED RED BLOOD CELLS [3]: 0 /100WBC | PLATELET COUNT [3]: 1186.33 x10E3/uL | ALANINE AMINOTRANSFERASE [3]: 75 u/L | ALBUMIN [3]: 4.07 G/DL | ALKALINE PHOSPHATASE [3]: 310.67 u/L | ASPARTATE AMINOTRANSFERASE [3]: 85.33 u/L | BLOOD UREA NITROGEN [3]: 14 mg/dL | CARBON DIOXIDE [3]: 29.33 mmol/L | CHLORIDE [3]: 103 MEQ/L | CHOLESTEROL [3]: 68.67 mg/dL | CREATINE PHOSPHOKINASE [3]: 229.33 u/L | CREATININE [3]: 0.12 mg/dL | GLUCOSE [3]: 170.33 mg/dL | LACTATE DEHYDROGENASE [3]: 76.33 u/L | LIPASE [3]: 10 u/L | PHOSPHORUS [3]: 9.87 mg/dL | POTASSIUM [3]: 5.16 MEQ/L | SODIUM [3]: 146.93 MEQ/L | TOTAL BILIRUBIN [3]: 0.13 mg/dL | TOTAL PROTEIN [3]: 5.67 G/DL | URIC ACID [3]: 0.77 mg/dL
